Experimental data from ChEMBL document CHEMBL1201862, “PubChem BioAssay data set” (2004).
Activity calls are given as the source filed them. Cut-off read from the data, not from the text of the source: actives have a measured IC50 and inactives only a lower limit.

These molecules were tested against Envelope glycoprotein gp160 (Human immunodeficiency virus 1, UniProt Q6QLK5) (assay: cell-free HIV fusion peptide-binding blockers – biochemical, uHTS, fluorescence dequenching, […] (AID 1986)).
Envelope glycoprotein gp160, sequence (Q6QLK5 whole entry, the tested form may be a part): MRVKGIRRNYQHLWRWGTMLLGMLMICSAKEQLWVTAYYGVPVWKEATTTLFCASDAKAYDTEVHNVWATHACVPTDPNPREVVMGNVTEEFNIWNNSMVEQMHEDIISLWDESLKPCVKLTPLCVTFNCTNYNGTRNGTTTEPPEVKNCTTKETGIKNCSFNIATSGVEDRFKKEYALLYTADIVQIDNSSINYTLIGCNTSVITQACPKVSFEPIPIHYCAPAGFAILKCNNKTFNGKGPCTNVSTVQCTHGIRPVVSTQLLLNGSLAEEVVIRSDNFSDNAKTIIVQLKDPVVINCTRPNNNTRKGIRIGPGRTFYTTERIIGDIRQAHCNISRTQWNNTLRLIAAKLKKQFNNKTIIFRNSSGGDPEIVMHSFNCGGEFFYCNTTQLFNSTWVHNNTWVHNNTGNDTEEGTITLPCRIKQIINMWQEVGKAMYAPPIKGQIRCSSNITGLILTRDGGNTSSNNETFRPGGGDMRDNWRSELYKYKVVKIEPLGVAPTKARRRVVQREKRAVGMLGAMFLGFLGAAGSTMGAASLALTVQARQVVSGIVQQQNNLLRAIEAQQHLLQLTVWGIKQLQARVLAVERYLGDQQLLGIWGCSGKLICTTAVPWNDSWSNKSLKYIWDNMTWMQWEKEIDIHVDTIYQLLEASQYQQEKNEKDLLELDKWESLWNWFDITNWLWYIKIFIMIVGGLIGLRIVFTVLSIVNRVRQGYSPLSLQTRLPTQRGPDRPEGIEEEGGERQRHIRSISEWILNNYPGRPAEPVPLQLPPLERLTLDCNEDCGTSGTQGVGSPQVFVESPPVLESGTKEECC
In the case of `O=C(O)CN1C(=O)/C(=C\c2cc(Br)ccc2OCc2ccc(F)cc2)SC1=S`, the IC50 is reported as 10.7 µM (active). In the case of `O=C(O)CN1C(=O)/C(=C\c2cc(Br)ccc2OCc2ccccc2Cl)SC1=S`, the IC50 is reported as 14.3 µM (active). For `O=C(CCN1C(=O)/C(=C/c2ccco2)SC1=S)Nc1ccc(C(=O)O)c(O)c1`, the IC50 was 14.7 µM (active). With `CCCOc1cccc(C2C(C(=O)c3cc4ccccc4o3)=C(O)C(=O)N2c2cc(C)on2)c1` (centres undefined) the IC50 was 16.9 µM (active).
